Results: PubChem BioAssay (NCI)
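In this assay, cells in 96-well plates receive the compound at five concentrations for 48 hours. Endpoints are linearly interpolated between the surrounding concentrations. At the GI50, growth is halved. At the TGI there is no net growth.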

Experiments:
Assay in all cases: DTP human tumour cell line panel, 48 h
HOP-92 NSCLC = test system: HOP-92 NSCLC
UACC-62 melanoma = test system: UACC-62 melanoma
ACHN renal = test system: ACHN renal
SK-OV-3 ovarian = test system: SK-OV-3 ovarian
SK-MEL-2 melanoma = test system: SK-MEL-2 melanoma
SR leukemia = test system: SR leukemia
NCI/ADR-RES ovarian = test system: NCI/ADR-RES ovarian
HS 578T breast = test system: HS 578T breast
MDA-MB-231 breast = test system: MDA-MB-231 breast
SF-268 CNS = test system: SF-268 CNS
HCT-15 colon = test system: HCT-15 colon
DU-145 prostate = test system: DU-145 prostate
SNB-19 CNS = test system: SNB-19 CNS
HCC-2998 colon = test system: HCC-2998 colon
NCI-H460 lung = test system: NCI-H460 lung
NCI-H226 lung = test system: NCI-H226 lung
SW-620 colon = test system: SW-620 colon
OVCAR-8 ovarian = test system: OVCAR-8 ovarian
OVCAR-5 ovarian = test system: OVCAR-5 ovarian
LOX IMVI melanoma = test system: LOX IMVI melanoma
TK-10 renal = test system: TK-10 renal
CCRF-CEM leukemia = test system: CCRF-CEM leukemia
KM12 colon = test system: KM12 colon
SN12C renal = test system: SN12C renal
SK-MEL-5 melanoma = test system: SK-MEL-5 melanoma
COLO 205 colon = test system: COLO 205 colon
OVCAR-4 ovarian = test system: OVCAR-4 ovarian
T-47D breast = test system: T-47D breast
A498 renal = test system: A498 renal

Structure (SMILES): COc1cc2c3c(n(CCCNC4CCCCC4)c(=O)c2cc1OC)-c1cc2c(cc1C3=O)OCO2
- TGI (HOP-92 NSCLC): 42 µM
- GI50 (UACC-62 melanoma): 27 µM
- TGI (UACC-62 melanoma): > 66.5 µM
- GI50 (ACHN renal): 8.95 µM
- TGI (ACHN renal): 33.5 µM
- GI50 (SK-OV-3 ovarian): 20.8 µM
- TGI (SK-OV-3 ovarian): 51.1 µM
- GI50 (SK-MEL-2 melanoma): > 100 µM
- TGI (SK-MEL-2 melanoma): > 100 µM
- GI50 (SR leukemia): 0.245 µM
- TGI (SR leukemia): 4.17 µM
- GI50 (NCI/ADR-RES ovarian): 1.78 µM
- TGI (NCI/ADR-RES ovarian): 4.45 µM
- GI50 (HS 578T breast): 49 µM
- TGI (HS 578T breast): > 100 µM
- GI50 (MDA-MB-231 breast): 2.18 µM
- TGI (MDA-MB-231 breast): 5.13 µM
- GI50 (SF-268 CNS): 9.87 µM
- TGI (SF-268 CNS): > 69 µM
- GI50 (HCT-15 colon): 1.62 µM
- TGI (HCT-15 colon): 3.21 µM
- GI50 (DU-145 prostate): 1.83 µM
- TGI (DU-145 prostate): 3.74 µM
- GI50 (SNB-19 CNS): 26.2 µM
- TGI (SNB-19 CNS): > 76.5 µM
- GI50 (HCC-2998 colon): 3.69 µM
- TGI (HCC-2998 colon): 8.34 µM
- GI50 (NCI-H460 lung): 1.52 µM
- TGI (NCI-H460 lung): 3.24 µM
- GI50 (NCI-H226 lung): 24.8 µM
- TGI (NCI-H226 lung): > 67 µM
- GI50 (SW-620 colon): 1.44 µM
- TGI (SW-620 colon): 4.18 µM
- GI50 (OVCAR-8 ovarian): 18 µM
- TGI (OVCAR-8 ovarian): 36.6 µM
- GI50 (OVCAR-5 ovarian): 20.3 µM
- TGI (OVCAR-5 ovarian): 48.4 µM
- GI50 (LOX IMVI melanoma): 1.43 µM
- TGI (LOX IMVI melanoma): 3 µM
- GI50 (TK-10 renal): 20.9 µM
- TGI (TK-10 renal): 36.7 µM
- GI50 (CCRF-CEM leukemia): 0.319 µM
- TGI (CCRF-CEM leukemia): 13.7 µM
- GI50 (KM12 colon): 11.7 µM
- TGI (KM12 colon): > 59 µM
- GI50 (SN12C renal): 18.2 µM
- TGI (SN12C renal): > 57.8 µM
- GI50 (SK-MEL-5 melanoma): 18.4 µM
- TGI (SK-MEL-5 melanoma): 36.3 µM
- GI50 (COLO 205 colon): 8 µM
- TGI (COLO 205 colon): > 54 µM
- GI50 (OVCAR-4 ovarian): 10.9 µM
- TGI (OVCAR-4 ovarian): 23.9 µM
- GI50 (T-47D breast): 20.8 µM
- TGI (T-47D breast): 61.4 µM
- GI50 (A498 renal): 20.8 µM
- TGI (A498 renal): 49.1 µM
